pIC50: −log10 of the molar value. Values joined by “and” are separate entries in the source; they are usually repeats but may differ in a detail not shown here. Equal values may be shown once.
Assays:
Assay in all cases: cells
CAPAN-1 = type: functional, cell-based, Homo sapiens;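 further: growth suppression of CAPAN-1 cells, read out by a cell viability assay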
Description: SANGER: Inhibition of human CAPAN-1 cell growth in a cell viability assay.

AGS = type: functional, cell-based, Homo sapiens;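 further: growth inhibition of AGS cells, determined with a cell viability assay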
Description: SANGER: Inhibition of human AGS cell growth in a cell viability assay.

EW-1 = type: functional, cell-based, Homo sapiens
Description: SANGER: Inhibition of human EW-1 cell growth in a cell viability assay.

SF-539 = type: functional, cell-based, Homo sapiens;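 further: Read-out is a cell viability assay, with IC50 reflecting inhibition of cell growth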
Description: SANGER: Inhibition of human SF539 cell growth in a cell viability assay.

DMS-79 = type: functional, cell-based; conditions: Homo sapiens;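 further: growth inhibition measured with a cell viability assay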
Description: SANGER: Inhibition of human DMS-79 cell growth in a cell viability assay.

AU565 = type: functional, cell-based, Homo sapiens;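 further: cell viability assay measuring growth inhibition of human AU565 cells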
Description: SANGER: Inhibition of human AU565 cell growth in a cell viability assay.

ES1 = type: functional, cell-based, Homo sapiens;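 further: growth inhibition of ES1 cells, read out with a cell viability assay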
Description: SANGER: Inhibition of human ES1 cell growth in a cell viability assay.

SK-UT-1 = type: functional, cell-based, Homo sapiens;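 further: growth inhibition of SK-UT-1 cells, measured by a cell viability assay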
Description: SANGER: Inhibition of human SK-UT-1 cell growth in a cell viability assay.

CAMA-1 = type: functional, cell-based, Homo sapiens;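 further: growth inhibition of CAMA-1 cells, read out with a cell viability assay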
Description: SANGER: Inhibition of human CAMA-1 cell growth in a cell viability assay.

SK-N-FI = type: functional, cell-based, Homo sapiens;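 further: cell viability assay measuring growth inhibition of human SK-N-FI cells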
Description: SANGER: Inhibition of human SK-N-FI cell growth in a cell viability assay.

LK-2 = type: functional, cell-based, Homo sapiens;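 further: growth inhibition of LK-2 cells, read out with a viability assay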
Description: SANGER: Inhibition of human LK-2 cell growth in a cell viability assay.

RPMI-2650 = type: functional, cell-based, Homo sapiens
Description: SANGER: Inhibition of human RPMI-2650 cell growth in a cell viability assay.

HCC2218 = type: functional, cell-based; conditions: Homo sapiens;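 further: cell viability assay read-out, with IC50 given as the concentration that inhibits growth of the cell line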
Description: SANGER: Inhibition of human HCC2218 cell growth in a cell viability assay.

MKN-28 = type: functional, cell-based, Homo sapiens;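 further: cell viability assay read-out, IC50 reflects suppression of growth of human MKN-28 cells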
Description: SANGER: Inhibition of human MKN28 cell growth in a cell viability assay.

NCI-H69 = type: functional, cell-based; conditions: Homo sapiens;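 further: growth inhibition of the cell line, read out with a cell viability assay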
Description: SANGER: Inhibition of human NCI-H69 cell growth in a cell viability assay.

ABC-1 = type: functional, cell-based, Homo sapiens;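 further: growth inhibition of human ABC-1 cells, read out by a cell viability assay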
Description: SANGER: Inhibition of human ABC-1 cell growth in a cell viability assay.

HOP-62 = type: functional, cell-based, Homo sapiens; conditions: hop-62;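 further: cell growth inhibition determined with a viability assay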
Description: SANGER: Inhibition of human HOP-62 cell growth in a cell viability assay.

NB14 = type: functional, cell-based; conditions: Homo sapiens;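 further: growth inhibition of NB14 cells measured with a cell viability assay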
Description: SANGER: Inhibition of human NB14 cell growth in a cell viability assay.

HN = type: functional, cell-based, Homo sapiens
Description: SANGER: Inhibition of human HN cell growth in a cell viability assay.

HuCCT-1 = type: functional, cell-based, Homo sapiens, HuCCT1;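 further: growth inhibition of HuCCT-1 cells, read out by a cell viability assay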
Description: SANGER: Inhibition of human HuCCT1 cell growth in a cell viability assay.

EW-24 = type: functional, cell-based; conditions: Homo sapiens;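 further: human EW-24 cancer cell line, growth inhibition read out via a cell viability assay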
Description: SANGER: Inhibition of human EW-24 cell growth in a cell viability assay.

Becker = type: functional, cell-based, Homo sapiens;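 further: growth inhibition of Becker cells, read out with a cell viability assay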
Description: SANGER: Inhibition of human Becker cell growth in a cell viability assay.

M14 = type: functional, cell-based, Homo sapiens;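 further: growth inhibition of M14 cells, read out with a cell viability assay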
Description: SANGER: Inhibition of human M14 cell growth in a cell viability assay.

A101D = type: functional, cell-based, Homo sapiens;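 further: growth inhibition of the cell line, measured with a viability assay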
Description: SANGER: Inhibition of human A101D cell growth in a cell viability assay.

BT-474 = type: functional, cell-based, Homo sapiens
Description: SANGER: Inhibition of human BT-474 cell growth in a cell viability assay.

HCE-4 = type: functional, cell-based, Homo sapiens;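 further: cell viability assay measuring inhibition of growth in the human HCE-4 cell line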
Description: SANGER: Inhibition of human HCE-4 cell growth in a cell viability assay.

UACC-893 = type: functional, cell-based, Homo sapiens
Description: SANGER: Inhibition of human UACC-893 cell growth in a cell viability assay.

CAS-1 = type: functional, cell-based, Homo sapiens;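 further: growth inhibition of CAS-1 cells, measured with a cell viability assay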
Description: SANGER: Inhibition of human CAS-1 cell growth in a cell viability assay.

MSTO-211H = type: functional, cell-based, Homo sapiens
Description: SANGER: Inhibition of human MSTO-211H cell growth in a cell viability assay.

RPMI-7951 = type: functional, cell-based, Homo sapiens
Description: SANGER: Inhibition of human RPMI-7951 cell growth in a cell viability assay.

JVM-2 = type: functional, cell-based; conditions: Homo sapiens;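 further: growth inhibition of JVM-2 cells determined by a cell viability assay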
Description: SANGER: Inhibition of human JVM-2 cell growth in a cell viability assay.

D-247MG = type: functional, cell-based, Homo sapiens
Description: SANGER: Inhibition of human D-247MG cell growth in a cell viability assay.

T84 = type: functional, cell-based, Homo sapiens;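 further: growth inhibition measured with a cell viability readout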
Description: SANGER: Inhibition of human T84 cell growth in a cell viability assay.

NY = type: functional, cell-based, Homo sapiens
Description: SANGER: Inhibition of human NY cell growth in a cell viability assay.

Panc1005 = type: functional, cell-based, Homo sapiens;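 further: growth inhibition of human PANC-10-05 cells, measured by a cell viability assay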
Description: SANGER: Inhibition of human PANC-10-05 cell growth in a cell viability assay.

HCC1187 = type: functional, cell-based, Homo sapiens;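 further: growth inhibition of HCC1187 cells, read out with a cell viability assay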
Description: SANGER: Inhibition of human HCC1187 cell growth in a cell viability assay.

RO82-W-1 = type: functional, cell-based, Homo sapiens;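 further: growth inhibition of human RO82-W-1 cells, measured with a cell viability assay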
Description: SANGER: Inhibition of human RO82-W-1 cell growth in a cell viability assay.

8305C = type: functional, cell-based, Homo sapiens
Description: SANGER: Inhibition of human 8305C cell growth in a cell viability assay.

CAL-27 = type: functional, cell-based, Homo sapiens;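 further: Viability-based readout, IC50 reflecting inhibition of CAL-27 cell growth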
Description: SANGER: Inhibition of human CAL-27 cell growth in a cell viability assay.

EW-11 = type: functional, cell-based, Homo sapiens;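 further: growth inhibition of human EW-11 cells, measured with a cell viability assay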
Description: SANGER: Inhibition of human EW-11 cell growth in a cell viability assay.

SK-N-AS = type: functional, cell-based, Homo sapiens;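 further: growth inhibition of human SK-N-AS cells, measured with a cell viability assay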
Description: SANGER: Inhibition of human SK-N-AS cell growth in a cell viability assay.

NCI-H2347 = type: functional, cell-based, Homo sapiens;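 further: growth inhibition of the cell line, read out with a cell viability assay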
Description: SANGER: Inhibition of human NCI-H2347 cell growth in a cell viability assay.

LB771-HNC = type: functional, cell-based, Homo sapiens;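 further: growth inhibition of LB771-HNC human cells, read out with a cell viability assay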
Description: SANGER: Inhibition of human LB771-HNC cell growth in a cell viability assay.

SCC-4 = type: functional, cell-based, Homo sapiens;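 further: growth inhibition of human SCC-4 cells, read out as cell viability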
Description: SANGER: Inhibition of human SCC-4 cell growth in a cell viability assay.

U-266 = type: functional, cell-based; conditions: Homo sapiens
Description: SANGER: Inhibition of human U-266 cell growth in a cell viability assay.

LS-123 = type: functional, cell-based, Homo sapiens
Description: SANGER: Inhibition of human LS-123 cell growth in a cell viability assay.

P12-Ichikawa = type: functional, cell-based; conditions: Homo sapiens
FaDu = type: functional, cell-based, Homo sapiens;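 further: cell viability readout of growth inhibition in FaDu cells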
Description: SANGER: Inhibition of human FADU cell growth in a cell viability assay.

RPMI-8226 = type: functional, cell-based; conditions: Homo sapiens
Description: SANGER: Inhibition of human RPMI-8226 cell growth in a cell viability assay.

NCI-H2342 = type: functional, cell-based; conditions: Homo sapiens;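 further: growth inhibition of the cancer cell line, determined with a cell viability assay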
Description: SANGER: Inhibition of human NCI-H2342 cell growth in a cell viability assay.

NCI-H720 = type: functional, cell-based; conditions: Homo sapiens;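 further: growth inhibition of human NCI-H720 cells determined by a cell viability assay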
Description: SANGER: Inhibition of human NCI-H720 cell growth in a cell viability assay.

MDA-MB-415 = type: functional, cell-based; conditions: Homo sapiens
SW982 = type: functional, cell-based; conditions: Homo sapiens;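 further: growth inhibition of SW982 cells, read out with a cell viability assay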
Description: SANGER: Inhibition of human SW982 cell growth in a cell viability assay.

Cc1cc([C@@H](C)Nc2ccccc2C(=O)O)c2nc(N3CCOCC3)cc(=O)n2c1 [AZD-6482]
pIC50 (CAPAN-1; capan-1): < 5.29
pIC50 (AGS; Homo sapiens, AGS): < 5.29
pIC50 (AGS; ags): < 5.29
pIC50 (EW-1; ew-1): < 5.29
pIC50 (SF-539; sf-539): < 5.29
pIC50 (DMS-79): < 5.29
pIC50 (AU565; Homo sapiens, AU565): < 5.29
pIC50 (AU565; au565): < 5.29
pIC50 (ES1; es1): < 5.29
pIC50 (SK-UT-1; sk-ut-1): 5.61 and < 5.29
pIC50 (CAMA-1; cama-1): 5.92 and < 5.29
pIC50 (SK-N-FI; sk-n-fi): < 5.29
pIC50 (LK-2; lk-2): < 5.29
pIC50 (RPMI-2650; Homo sapiens, RPMI-2650): < 5.29
pIC50 (RPMI-2650; rpmi-2650): < 5.29
pIC50 (HCC2218): < 5.29
pIC50 (MKN-28; mkn-28): < 5.29
pIC50 (NCI-H69): < 5.29
pIC50 (ABC-1; abc-1): < 5.29
pIC50 (HOP-62): < 5.29
pIC50 (NB14): < 5.29
pIC50 (HN; hn): < 5.29
pIC50 (HuCCT-1; hucct1): < 5.29 and 5.91
pIC50 (EW-24): < 5.29
pIC50 (Becker; becker): 5.87 and 5.34
pIC50 (M14; m14): < 5.29
pIC50 (A101D; a101d): 5.49 and < 5.29
pIC50 (BT-474; bt-474): < 5.29
pIC50 (HCE-4; hce-4): < 5.29
pIC50 (UACC-893; uacc-893): 5.40 and 5.82
pIC50 (CAS-1; Homo sapiens, CAS-1): < 5.29
pIC50 (CAS-1; cas-1): < 5.29
pIC50 (MSTO-211H; msto-211h): < 5.29
pIC50 (RPMI-7951; Homo sapiens, RPMI-7951): < 5.29
pIC50 (RPMI-7951; rpmi-7951): < 5.29
pIC50 (JVM-2): < 5.29
pIC50 (D-247MG; d-247mg): < 5.29
pIC50 (T84; t84): < 5.29
pIC50 (NY; Homo sapiens, NY): < 5.29
pIC50 (NY; ny): < 5.29
pIC50 (Panc1005; panc1005): 5.68 and < 5.29
pIC50 (HCC1187; Homo sapiens, HCC1187): < 5.29
pIC50 (HCC1187; hcc1187): < 5.29
pIC50 (RO82-W-1; ro82-w-1): < 5.29
pIC50 (8305C; 8305c): < 5.29
pIC50 (CAL-27; Homo sapiens, CAL-27): < 5.29
pIC50 (CAL-27; cal-27): < 5.29
pIC50 (EW-11; ew-11): < 5.29
pIC50 (SK-N-AS; Homo sapiens, SK-N-AS): < 5.29
pIC50 (SK-N-AS; sk-n-as): < 5.29
pIC50 (NCI-H2347; Homo sapiens, NCI-H2347): < 5.29
pIC50 (NCI-H2347; nci-h2347): < 5.29
pIC50 (LB771-HNC; Homo sapiens, LB771-HNC): < 5.29
pIC50 (LB771-HNC; lb771-hnc): < 5.29
pIC50 (SCC-4; scc-4): < 5.29
pIC50 (U-266): < 5.29
pIC50 (LS-123; ls-123): < 5.29
pIC50 (P12-Ichikawa): < 5.29
pIC50 (FaDu; Homo sapiens, FaDu): < 5.29
pIC50 (FaDu; fadu): < 5.29
pIC50 (RPMI-8226): < 5.29
pIC50 (NCI-H2342): 6.07
pIC50 (NCI-H720): < 5.29

CN(Cc1cnc2nc(N)nc(N)c2n1)c1ccc(C(=O)N[C@@H](CCC(=O)O)C(=O)O)cc1 [METHOTREXATE]
pIC50 (CAPAN-1; Homo sapiens, CAPAN-1): < 6.70
pIC50 (EW-1; Homo sapiens, EW-1): 6.77
pIC50 (SF-539; Homo sapiens, SF-539): < 6.70
pIC50 (DMS-79): < 6.70
pIC50 (AU565; Homo sapiens, AU565): 7.21
pIC50 (ES1; Homo sapiens, ES1): 7.79
pIC50 (SK-UT-1; Homo sapiens, SK-UT-1): < 6.70
pIC50 (CAMA-1; Homo sapiens, CAMA-1): < 6.70
pIC50 (SK-N-FI; Homo sapiens, SK-N-FI): < 6.70
pIC50 (LK-2; Homo sapiens, LK-2): < 6.70
pIC50 (RPMI-2650; Homo sapiens, RPMI-2650): < 6.70
pIC50 (MKN-28; Homo sapiens, MKN-28): < 6.70
pIC50 (ABC-1; Homo sapiens, ABC-1): < 6.70
pIC50 (NB14): 7.12
pIC50 (HN; Homo sapiens, HN): < 6.70
pIC50 (HuCCT-1; Homo sapiens, HuCCT-1): < 6.70
pIC50 (EW-24): < 6.70
pIC50 (Becker; Homo sapiens, Becker): < 6.70
pIC50 (M14; Homo sapiens, M14): < 6.70
pIC50 (A101D; Homo sapiens, A101D): < 6.70
pIC50 (BT-474; Homo sapiens, BT-474): < 6.70
pIC50 (HCE-4; Homo sapiens, HCE-4): < 6.70
pIC50 (UACC-893; Homo sapiens, UACC-893): < 6.70
pIC50 (CAS-1; Homo sapiens, CAS-1): < 6.70
pIC50 (MSTO-211H; Homo sapiens, MSTO-211H): < 6.70
pIC50 (RPMI-7951; Homo sapiens, RPMI-7951): < 6.70
pIC50 (JVM-2): < 6.70
pIC50 (D-247MG; Homo sapiens, D-247MG): < 6.70
pIC50 (T84; Homo sapiens, T84): < 6.70
pIC50 (MDA-MB-415): < 6.70
pIC50 (NY; Homo sapiens, NY): < 6.70
pIC50 (Panc1005; Homo sapiens, Panc1005): < 6.70
pIC50 (RO82-W-1; Homo sapiens, RO82-W-1): < 6.70
pIC50 (8305C; Homo sapiens, 8305C): 6.71
pIC50 (CAL-27; Homo sapiens, CAL-27): < 6.70
pIC50 (EW-11; Homo sapiens, EW-11): < 6.70
pIC50 (SK-N-AS; Homo sapiens, SK-N-AS): < 6.70
pIC50 (NCI-H2347; Homo sapiens, NCI-H2347): < 6.70
pIC50 (LB771-HNC; Homo sapiens, LB771-HNC): < 6.70
pIC50 (SCC-4; Homo sapiens, SCC-4): < 6.70
pIC50 (U-266): < 6.70
pIC50 (LS-123; Homo sapiens, LS-123): < 6.70
pIC50 (P12-Ichikawa): 7.38
pIC50 (FaDu; Homo sapiens, FaDu): < 6.70
pIC50 (RPMI-8226): 6.99
pIC50 (SW982): < 6.70
pIC50 (NCI-H2342): < 6.70

Source: ChEMBL document CHEMBL1201861, “Genomics of Drug Sensitity in Cancer screening data, Wellcome Trust Sanger Institute”
